Assay results: BigSolDB 2.1

COc1c(N2CCNC(C)C2)c(F)cc2c(=O)c(C(=O)O)cn(C3CC3)c12 (configuration not stated)
solubility (mole fraction)
Details | 273.15 K | 278.15 K | 283.15 K | 288.15 K | 293.15 K | 298.15 K | 303.15 K | 308.15 K | 313.15 K | 318.15 K
in 1,4-dioxane | – | – | – | 0.000952 | 0.00111 | 0.00129 | 0.00149 | 0.00172 | 0.00198 | 0.00228
in 2-butanone | 0.00158 | 0.00186 | 0.00219 | 0.00257 | 0.003 | 0.00349 | 0.00405 | 0.00468 | 0.00539 | 0.0062
in DMF | 0.00259 | 0.00305 | 0.00359 | 0.00417 | 0.00486 | 0.00566 | 0.00653 | 0.00751 | 0.00864 | 0.00989
in acetone | 0.00081 | 0.000942 | 0.00111 | 0.0013 | 0.00152 | 0.00177 | 0.00204 | 0.00235 | 0.0027 | 0.00309
in acetonitrile | 0.0013 | 0.0015 | 0.00177 | 0.00208 | 0.00244 | 0.00281 | 0.00322 | 0.0037 | 0.00424 | 0.00485
in ethanol | 0.000261 | 0.000326 | 0.000403 | 0.000489 | 0.000585 | 0.000698 | 0.000829 | 0.000984 | 0.00116 | 0.00136
in ethyl acetate | 0.00323 | 0.00378 | 0.0044 | 0.00509 | 0.00588 | 0.00679 | 0.00778 | 0.00893 | 0.0102 | 0.0117
in isopropanol | 0.000123 | 0.000158 | 0.000204 | 0.000254 | 0.000322 | 0.000401 | 0.000498 | 0.000613 | 0.000751 | 0.000912
in methanol | 0.00019 | 0.000232 | 0.000294 | 0.00036 | 0.000438 | 0.000531 | 0.000637 | 0.000752 | 0.000902 | 0.00107
in n-butanol | 0.00105 | 0.00122 | 0.00143 | 0.00169 | 0.00195 | 0.00225 | 0.0026 | 0.00299 | 0.00344 | 0.00395
in n-propanol | 0.000364 | 0.000445 | 0.000545 | 0.000655 | 0.000778 | 0.000922 | 0.00109 | 0.00127 | 0.00149 | 0.00173
in toluene | 5.9e-05 | 8.1e-05 | 0.000109 | 0.000146 | 0.000199 | 0.000261 | 0.000344 | 0.000446 | 0.000577 | 0.000742
